Data published in US20250161399A1, “TARGETING SLC46A2-MEDIATED MUROPEPTIDE TRANSPORT TO TREAT PSORIASIS” (University of Massachusetts, priority 2021, published 2025).
“Also recorded” adds a separate entry of the source.

What was measured:
[1] = test system: HSE dermal fibroblasts (CXCL8); test: CXCL8 induction in Human Skin Equivalents (HSE) skin organoids; assay type: cell-based; details: HSE epidermis treated with 30 μM iE-DAP for 24 h
tape stripped mouse skin = test: neutrophil recruitment after topical application to tape stripped skin; assay type: in vivo; details: topical 10 μl of 30 μM iE-DAP on tape stripped skin, 3 h
Procedure: The epidermal barrier of the dorsal ear pinnae was disrupted by mild tape stripping. A small piece of surgical tape (Transpore surgical tape) was manually applied to the skin and removed, repeated 5 consecutive rounds using a fresh piece of tape for each round. Then, 10^7 CFU C. accolens or 30 μM iE-DAP in 50% glycerol was applied to one pinna and 50% glycerol was applied to contralateral pinna. After 3 h mice were euthanized, and pinnae were processed as described above.

[2] = test system: mouse skin (NOD1/NOD2 response); test: neutrophil recruitment to pinnae after intradermal injection; assay type: in vivo; details: TCT 8 μM, iE-DAP 30 μM
Procedure: […] After 3 h, both ears were individually harvested, and stored in ice cold PBS on ice until further processing for flow cytometry staining.
Pinnae were cut into small pieces and incubated for 30 min at 37° C. in a solution of 1 mg/ml collagenase (Sigma) in DMEM media containing 10% FBS. Ice-cold FACS buffer (2% FBS in PBS) was added to skin samples to stop the reaction. Then samples were placed on 70 μm cell strainers and ground using a cell strainer pestle to create a single cell suspension. Cells were spun at 180 g for 5 min at 4° C. and resuspended in FACS buffer.
(§1) 1×10^6 cells were stained with F4/80-PE/Cy7 (1:200), CD45-alexaflour700 (1:200) and Gr1-PE (1:200) for 30 min on ice in the dark. Samples were washed three times with FACS buffer and analyzed with a Cytek Aurora cytometer. Results were analyzed with FlowJo software (Tree Star, USA).

[3] = test system: primary dermal fibroblasts; test: CXCL1 (KC) ELISA from primary dermal fibroblasts; assay type: cell-based, mouse; details: iE-DAP 30 μM or IL-1α 10 ng/ml, 24 hrs
Procedure: Mouse dermal fibroblasts were isolated as described herein. In brief, mouse pinnae were incubated on a table shaker (200 rpm) in a collagenase D-pronase solution [2.5 mg/ml collagenase-D (Sigma), 20 mg/ml pronase (Sigma) diluted in 1M Tris, pH 8.0 and containing 1 μM EDTA (Sigma)] for 90 min at 37° C. Fibroblasts were then isolated by pressing digested skin through a 70 μm cell strainer, and cells were collected and cultured in RPMI 1640 medium with 10% FBS, 50 μM 2-mercaptoethanol, 100 μM asparagine, 2 mM glutamine, 1% penicillin-streptomycin for 2-4 passages before stimulating with immune elicitors, and/or harvesting media or cells.
For cytokine ELISAs from dermal fibroblast, cells were challenged with IL-1α (10 ng/ml) or 30 μM iE-DAP for 24 h, and media was collected and processed for ELISA as described above.

Slc46a2 = target: T1, Slc46a2 (Mus musculus, UniProt Q8CA03); test: click-muropeptide uptake into keratinocytes (CalFluor 488 Azide, confocal imaging and lysate fluorescence); assay type: cell-based; details: WT or Nod1−/− keratinocytes, 30 μM click-iE-DAP; MTX 250 μM or unlabeled iE-DAP 30 μM
T1 construct: primary mouse keratinocytes, which express Slc46a2 and Nod1; endogenous in cells; host or cells: primary mouse epidermal keratinocytes (WT or Nod1-/-; Slc46a2-/- cells served as the negative control)
T1 sequence (Q8CA03 1-479): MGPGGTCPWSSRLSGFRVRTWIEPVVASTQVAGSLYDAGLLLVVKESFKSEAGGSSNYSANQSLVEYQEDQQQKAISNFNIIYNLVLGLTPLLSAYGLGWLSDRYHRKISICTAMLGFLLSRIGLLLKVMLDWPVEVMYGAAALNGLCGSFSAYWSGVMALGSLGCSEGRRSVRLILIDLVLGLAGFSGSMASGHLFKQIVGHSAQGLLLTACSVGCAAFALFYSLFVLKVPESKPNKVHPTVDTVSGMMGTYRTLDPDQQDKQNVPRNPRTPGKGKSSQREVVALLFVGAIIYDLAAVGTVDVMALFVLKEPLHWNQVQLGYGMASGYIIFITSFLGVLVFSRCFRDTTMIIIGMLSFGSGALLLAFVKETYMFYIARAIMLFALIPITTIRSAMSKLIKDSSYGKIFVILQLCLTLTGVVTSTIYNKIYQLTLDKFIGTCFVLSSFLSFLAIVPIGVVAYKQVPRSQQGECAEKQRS
Procedure: For visualization, mouse keratinocytes were challenged with click-iE-DAP (30 μM) or click-MDP (20 μM) 37° C. for 30-60 min, cells washed 2× with 1×PBS to remove access of click-muropeptides and fixed with 4% paraformaldehyde in PBS at RT for 10 min. Cells were permeabilized with 1% Triton-X in PBS for 10 min at RT and blocked with 1% BSA in PBS. These permeabilized cells were then incubated in click-reaction conditions (250 μM CuSO4, 35 μM BTAA, 60 μM sodium ascorbate) with 2.5 μM CalFluor 488 Azide at RT for 30 mins. Cells were then washed and mounted on slides, with DAPI containing mounting media. Slides were imaged with a Leica SP8 confocal microscope.

[4] = test system: mouse peritoneum (NOD1/NOD2 response); test: neutrophil recruitment to the peritoneum after intraperitoneal injection; assay type: in vivo; details: 3 h, iE-DAP 30 μM, MDP 10 μM
Procedure: For peritoneal cell extraction, animals were euthanized and cells from peritoneal cavity were isolated by peritoneal lavage (58). Harvested cell suspensions were centrifuged at 300 g for 5 min at 4° C. and resuspended in FACS buffer.
as §1

[5] = test system: primary human foreskin keratinocytes; test: Propidium Iodide (PI) uptake assay in primary human foreskin keratinocytes; assay type: cell-based; details: indicated iE-DAP doses, standard tissue culture
[6] = test system: primary mouse keratinocytes; test: cytokine ELISAs from primary keratinocyte culture media; assay type: cell-based
Procedure: Adult (6-8 weeks) mouse keratinocytes were isolated from male or female animals using protocols described previously (57). In brief, tail skin was incubated in 1 mg/ml Dispase II (Roche) overnight at 4° C. The epidermis was physically removed from the dermis with tweezers following Dispase II treatment, subsequently digested with TrypLE (Thermo) for 20 min at room temperature, and keratinocytes were detached by vigorously shaking in EpiLife culture medium and filtered with a 70 μm strainer (Fisher scientific). Isolated cells were seeded at a density of 10^5 cells/cm^2 cultured with EpiLife (Gibco) in 12-well plates precoated with coating matrix (Gibco) and used between 3 and 5 days after isolation.
For cytokine ELISAs, primary keratinocytes were either mock-treated or treated with 8 μM TCT or 30 μM iE-DAP for 24 h Culture medium was harvested and centrifuged at 500 g for 15 mins and analyzed using ELISA kits detecting CXCL1 (KC), IL-6, TNF-α, IL-1α and IL-1β (R&D systems) following the manufacturer's protocols. In brief, 96-well ELISA plates were coated with capture antibody overnight at room temperature. The next day, the plate was washed three times with wash buffer and incubated with harvested media (100 μl) for 2 h followed by three washes and then probed with biotin-labelled detection antibody for 2 h. After three washes with wash buffer, plates were incubated with HRP-streptavidin for 20 min at room temperature (RT), developed with TMB (3,3′,5,5″-tetramethylbenzidine) substrate for 20 min at RT, and then stopped with IN sulfuric acid. Plate was analyzed at 450 nm with wavelength correction at 540 nm.

NC(CCCC(NC(=O)CC[C@@H](N)C(=O)O)C(=O)O)C(=O)O (stereo in doubt) [iE-DAP, γ-D-Glu-mDAP]
CXCL8 in HSE dermal fibroblasts [1]: induction of CXCL8; also recorded: High expression of CXCL8
neutrophil recruitment response of WT skin (tape stripped mouse skin): responded
neutrophil / leukocyte recruitment to the skin in WT mice ([2]; intradermal 10 μl, LPS 10 μg/ml, 1 to 24 h): recruited inflammatory cells
neutrophil recruitment response in Slc46a2-deficient mice compared to WT ([2]; intradermal, 3 h, Tri-DAP 25 μM, C12-iE-DAP 20 μM, MDP 10 μM): failed to respond; also recorded: significantly reduced
CXCL1 (KC) response of primary dermal fibroblasts [3]: did not respond; also recorded: unresponsive
effect on cytosolic accumulation / cellular uptake of click-iE-DAP (Slc46a2): interfered
neutrophil recruitment response in Slc46a2−/− mice [4]: did not respond
neutrophil recruitment response in Slc46a3−/− mice [4]: responding normally
membrane permeabilization of primary human keratinocytes (PI uptake) [5]: failed to induce; also recorded: did not induce cell permeabilization
IL-1α release by keratinocytes ([6]; 30 μM iE DAP, 24 h): released IL-1α
induction of TNF, IL-6, IL-1β and IL-17 in keratinocytes ([6]; 30 μM iE-DAP, 24 hrs): not induced
